Several values for one entry are separate records, joined by “and”; a condition that tells them apart may be missing. Equal values may be shown once.
Key:
[1] = tested on: P. falciparum stage V gametocytes; assay: P. falciparum gametocyte viability assay (MitoTracker, flow cytometry), stage V; type: cell-based, Plasmodium falciparum; settings: 48 h; for Gametocyte stage V viability, percentage of control: listed as BC9B
Description: (§1) Gametocyte assays commenced seven days (stage III–IV) or ten days (stage V) post-invasion. […]
(§2) Plasmodium falciparum Gametocyte Viability Assays:
(§3) Asexual P. falciparum parasites were induced to form gametocytes as described (21).
(§4) Synchronized trophozoite-stage parasites at 2% parasitaemia were incubated overnight and […]
(§5) haematocrit maintained at 4%. On the subsequent day (designated as day 0) of gametocytogenesis, the culture containing early ring-stage parasites was first purified by sorbitol synchronisation to remove asynchronous trophozoites, and passed through a magnetic field in a sterile MACS® column in a SuperMACSTM II magnet to remove remaining late-stage parasites or later-stage gametocytes (negative selection). The culture medium was supplemented with 50 mM N-acetyl-D-glucosamine to inhibit asexual parasite proliferation, and changed daily. Sorbitol treatment was performed on Day 1, 5, and 6 to further remove asexual parasites. Gametocytes were magnetically enriched (positive selection) in a sterile column with a SuperMACSTM II magnet and eluted in culture media with 50 mM N-acetyl-D-glucosamine. These gametocytes were incubated overnight at 37 °C under microaerophilic conditions, and purity was assessed by examination under a light microscope (400× […]
(§6) Gametocyte viability was assessed as described by Ridgway et al. (21) with modifications.
(§7) Compounds or solvent controls (DMSO) were serially diluted across 96-well plates in culture media supplemented with 50 mM N-acetyl-D-glucosamine. Culture media without compound was used as a negative control. […]
(§8) control to determine background gametocyte fluorescence. Stage III-IV gametocytes (Day 7) or stage V (day 10) gametocytes were concentrated and added to the plate with 200 µL per well. The plate was incubated for 48 hours at 37 °C under humid microaerophilic conditions.
(§9) Parasites were then stained with 500 nM MitoTrackerTM Deep Red FM and 5 μg/ml Hoechst […]
(§10) cytometer as described above. […]
(§11) excluded. Live (positive) and dead (negative) gametocytes were differentiated by […]
(§12) percentage of each was calculated. […]

[2] = tested on: Toxoplasma gondii tachyzoites (RH strain); assay: Toxoplasma growth inhibition assay (tdTomato fluorescence, in HFF cells); type: cell-based; settings: Toxoplasma gondii, HFF, 72 h; read-out: IC50, T. gondii tachyzoite growth inhibition
Description: Fluorescence was measured daily with a fluorescence microplate reader for one week, and the background fluorescence from the time 0 reading was subtracted from all other measurements. […]
Toxoplasma Growth Inhibition Assays:
Growth inhibition was investigated as described previously (26). Fluorescent Toxoplasma gondii parasites were inoculated into an optical bottom 96-well plate containing confluent human foreskin fibroblast (HFF) host cells at a density of 2,000 parasites/well, with a serial dilution of each compound, or culture media/DMSO (0.1% v/v) alone. Plates were measured daily with a FluoStar Optima fluorescence plate reader at 540 nm excitation and 590 nm emission for one week, and the background fluorescence from the time 0 reading was subtracted from all other measurements. […]

P. berghei liver stages = assay: Plasmodium berghei liver stage growth inhibition assay (luminescence, in Huh7 cells); settings: for P. berghei liver stage growth, dose-response data points (Figure 3A): replicate data points; for P. berghei liver stage growth, dose-response data points (Figure 3A) / Figure 3E dose-response value (replicates): listed as BC9B
Description: Growth inhibition or cell viability were assessed by incubation with a serial dilution of test compounds, solvent controls (DMSO, ethanol, ethyl acetate), or culture media alone in 96-well plates, with detection of fluorescence, luminescence, or absorbance in microplate readers after 24–96 h unless otherwise specified.
Huh7 cells were seeded at a density of 10,000 cells per well of a 96-well plate, or 20,000 cells per collagen-coated coverslip. After 24 h, test compounds were added the wells were inoculated with P. berghei liver stage sporozoites dissected from infected A. stephensi salivary glands with 5000–10,000 sporozoites per well or 10,000–20,000 sporozoites per coverslip. Uninfected wells served as a control for background luminescence. Luminescence signal was measured 48 h post-invasion by addition of 1:1 ONE-Glo^TM substrate (Promega) with a luminescence microplate reader. Coverslips were fixed, stained, and imaged, with all parasites on each coverslip imaged and delineated as described (Petersen et al, [2017]) using Fiji ImageJ (Schindelin et al, [2012]). Data are presented as a percentage of the size or parasite number of the solvent control to normalize for differences between experiments.
Growth inhibition data were normalised by subtracting background fluorescence, luminescence, absorbance, or percentage of cells from a no-growth or no-viability control (high drug concentration, no-parasite control, or time = 0 measurement as specified), and expressed as a percentage of the growth or cell percentage in the negative control (culture media alone or solvent control) at the indicated timepoint (or to the highest measurement reached during the assay for Fig. EV3).
Plasmodium berghei ANKA Bergreen (22) or GFP-Luc (RMgm-29) (23), respectively
expressing green fluorescent protein (GFP) or a GFP-Luciferase fusion protein, were
maintained under routine conditions in SWR/J Mus musculus mice and Anopheles stephensi
Growth inhibition of P. berghei liver-stages was investigated after infection of human
hepatoma cells (Huh7) and subsequent growth for 48 hours at 37° C, 5% CO2 and 80%
humidity. The day prior to infection, 10,000 Huh7 cells were seeded in dark-sided 96-well
microplates (Greiner Bio One). On the day of infection, compounds or solvent controls
(DMSO) were serially diluted in culture media and 5,000 – 10,000 Bergreen or GFP-Luc
sporozoites were added per well following dissection from infected A. stephensi salivary
glands. Uninfected wells served as control for background luminescence. To promote invasion,
the plates were centrifuged at 1,550 g for 5 minutes. After 60 minutes, the media was
completely replaced with fresh, prewarmed media with the matching drug concentrations.
Media was partially replaced with new drug dilutions over the following two days. 48 hours
post-infection, luminescence signal was measured by addition of 1:1 ONE-GloTM substrate
(Promega) to the wells, followed by detection at 300 – 700 nm using a Synergy HTX plate

[3] = tested on: P. falciparum stage III–IV gametocytes; assay: P. falciparum gametocyte viability assay (MitoTracker, flow cytometry), stage III-IV; type: cell-based, Plasmodium falciparum; settings: 48 h; for Gametocyte stage III-IV viability, percentage of control: listed as BC9B
Description: as §1, §2, §3, §4, §5, §6, §7, §8, §9, §10, §11, §12

## COc1cc(NC(C)CCCNC(=O)CCC(=O)OC(C)C)c2ncccc2c1 (stereo not drawn) [PQ-link]
[1]; 50.000000000 uM, replicate values, source data Fig. 2D
  Gametocyte stage V viability, percentage of control: 66.98% and 63.41% and 52.55% and 74.37% and 69.92% and 70.17%
[1]; 100.000000000 uM, replicate values, source data Fig. 2D
  Gametocyte stage V viability, percentage of control: 11.39% (2×) and 9.662% and 17.36% and 16.33% and 21.17% and 48.62% and 50.63% and 48.77%
[1]; 200.000000000 uM, replicate values, source data Fig. 2D
  Gametocyte stage V viability, percentage of control: -1.011% and -1.165% and -0.9342% and -0.2117% and -0.2822% and -0.3175% and 0.4794% and 0.8647% and 0.8741%
[1]; Plasmodium falciparum, 6.250000000 uM, replicate values, source data Fig. 2D, read-out: Gametocyte stage V viability, percentage of control
  viability at 6.25 µM: 103%
[1]; Plasmodium falciparum, 12.500000000 uM, replicate values, source data Fig. 2D, read-out: Gametocyte stage V viability, percentage of control
  viability at 12.5 µM: 104%
[1]; Plasmodium falciparum, 25.000000000 uM, replicate values, source data Fig. 2D, read-out: Gametocyte stage V viability, percentage of control
  viability at 25 µM: 87.6%
[1]; Plasmodium falciparum, read-out: IC50, P. falciparum gametocyte stage V inhibition
  IC50: 70.5 µM
[2]
  IC50: 27.1 µM
P. berghei liver stages; 0.015241580 uM
  P. berghei liver stage growth, dose-response data points (Figure 3A): 92.27 and 99.03 and 108.7 and 82.7 and 111.9 and 105.4 and 99.3 and 85.25 and 115.4
P. berghei liver stages; 0.045724740 uM
  P. berghei liver stage growth, dose-response data points (Figure 3A): 97.1 and 81.64 and 78.74 and 103.7 and 110.1 and 105.2 and 93.19 and 87.52 and 92.15
P. berghei liver stages; 0.137174210 uM
  P. berghei liver stage growth, dose-response data points (Figure 3A): 100 and 94.2 and 80.68 and 93.41 and 113.2 and 98.29 and 109.9 and 94.24 and 87.26
P. berghei liver stages; 0.238281250 uM
  Figure 3E dose-response value (replicates): 98.59
P. berghei liver stages; 0.411522630 uM
  P. berghei liver stage growth, dose-response data points (Figure 3A): 112.6 and 99.03 and 80.68 and 102.2 and 100.8 and 100.3 and 103.8 and 90.84 and 80.37
P. berghei liver stages; 0.476562500 uM
  Figure 3E dose-response value (replicates): 90.54 and 104.6 and 95.37 and 97.54 and 101.7 and 100.2 and 97.21 and 100.9 and 86.29 and 94.55 and 90.62
P. berghei liver stages; 1.234567900 uM
  P. berghei liver stage growth, dose-response data points (Figure 3A): 102.9 and 94.2 and 112.6 and 111.7 and 103.5 and 88.53 and 119.6 and 97.91 and 82.29
P. berghei liver stages; 1.906250000 uM
  Figure 3E dose-response value (replicates): 91.51 and 91.73 and 86.54 and 84.53 and 94.62 and 101.5 and 100.5 and 102.9 and 93.23 and 96 and 85.81
P. berghei liver stages; 3.703703700 uM
  P. berghei liver stage growth, dose-response data points (Figure 3A): 97.1 and 64.25 and 91.3 and 55.79 and 60.08 and 47.34 and 73.56 and 51.31 and 52.36
P. berghei liver stages; 3.812500000 uM
  Figure 3E dose-response value (replicates): 95.8 and 93.79 and 78.58 and 83.98 and 89.72 and 104 and 93.76 and 101.5 and 80.15 and 95.42 and 85.86
P. berghei liver stages; 7.625000000 uM
  Figure 3E dose-response value (replicates): 98.29 and 86.67 and 78.83 and 80.78 and 88.54 and 106.8 and 100.5 and 90.89 and 82.41 and 82.35 and 77.49
P. berghei liver stages; 11.111111100 uM
  P. berghei liver stage growth, dose-response data points (Figure 3A): 24.64 and 16.91 and 28.5 and 18.53 and 18.77 and 20.08 and 31.94 and 26.35 and 21.2
P. berghei liver stages; 15.250000000 uM
  Figure 3E dose-response value (replicates): 60.3 and 56.28 and 80.98 and 77.04 and 83.07 and 85.06 and 90.81 and 88.28 and 61.89 and 72.05 and 69.51
P. berghei liver stages; 30.500000000 uM
  Figure 3E dose-response value (replicates): 25.91 and 29.38 and 68.25 and 66.32 and 65.97 and 65.87 and 62.35 and 59.29 and 31.73 and 40.4 and 41.06
P. berghei liver stages; 33.333333300 uM
  P. berghei liver stage growth, dose-response data points (Figure 3A): 3.382 (2×) and 4.348 and 16.15 and 16.87 and 15.2 and 10.82 and 11.34 and 9.511
P. berghei liver stages; 61.000000000 uM
  Figure 3E dose-response value (replicates): 6.18 and 4.905 and 12.31 and 10.74 and 14.16 and 15.86 and 12.88 and 14.9 and 2.822 and 2.591 and 2.429
P. berghei liver stages; 100.000000000 uM
  P. berghei liver stage growth, dose-response data points (Figure 3A): -1.449 and -0.4831 and -2.415 and 1.984 and 3.77 and 1.865 and 3.403 and 2.705 and 2.007
P. berghei liver stages; Plasmodium berghei, Huh-7, 48 h, read-out: IC50, P. berghei liver stage growth inhibition
  IC50: 5.7 µM
[3]; 3.125000000 uM, replicate values, source data Fig. 2C, 3.125 µM
  Gametocyte stage III-IV viability, percentage of control: 95.52% (2×) and 103.7% and 98.94% and 103.3% and 102% and 98.19% and 98.79% and 101.3% and 100.5% and 109.4%
[3]; 6.250000000 uM, replicate values, source data Fig. 2C, 6.25 µM
  Gametocyte stage III-IV viability, percentage of control: 103.3% and 99.89% and 101.1% and 100.9% and 104.1% and 103.4% and 100.6% and 98.59% and 102.7% and 100.3% and 94.88%
[3]; 12.500000000 uM, replicate values, source data Fig. 2C, 12.5 µM
  Gametocyte stage III-IV viability, percentage of control: 96% and 94.38% and 101.5% and 100.5% and 100.7% and 100.4% and 98.39% (2×) and 102.7% and 98.65% and 95.96%
[3]; 25.000000000 uM, replicate values, source data Fig. 2C
  Gametocyte stage III-IV viability, percentage of control: 93.41% and 97.62% and 99.34% and 95.75% and 97.14% and 99.2% and 97.59% and 96.58% and 96.77% and 92.46% and 91.11%
[3]; 50.000000000 uM, replicate values, source data Fig. 2C
  Gametocyte stage III-IV viability, percentage of control: 83.69% and 82.72% and 92.56% and 88.38% and 90.37% and 90.15% and 87.94% (2×) and 83.57% and 86.8% and 83.3%
[3]; 100.000000000 uM, replicate values, source data Fig. 2C
  Gametocyte stage III-IV viability, percentage of control: 63.1% and 60.41% and 65.29% and 78% and 74.98% and 78.2% and 65.68% and 65.48% and 64.86% and 59.49% and 56.77% and 63.58%
[3]; 200.000000000 uM, replicate values, source data Fig. 2C
  Gametocyte stage III-IV viability, percentage of control: 0.3329% and -3.262% and -3.462% and -33.89% and -33.85% and -34.28% and -34.3% and -33.84% and -35.23%
[3]; Plasmodium falciparum, 3.125000000 uM, replicate values, source data Fig. 2C, read-out: Gametocyte stage III-IV viability, percentage of control
  viability at 3.125 µM: 97.8%
[3]; Plasmodium falciparum, 6.250000000 uM, replicate values, source data Fig. 2C, read-out: Gametocyte stage III-IV viability, percentage of control
  viability at 6.25 µM: 100%
[3]; Plasmodium falciparum, 12.500000000 uM, replicate values, source data Fig. 2C, read-out: Gametocyte stage III-IV viability, percentage of control
  viability at 12.5 µM: 94.9%
[3]; Plasmodium falciparum, 25.000000000 uM, replicate values, source data Fig. 2C, read-out: Gametocyte stage III-IV viability, percentage of control
  viability at 25 µM: 92.1%
[3]; Plasmodium falciparum, 50.000000000 uM, replicate values, source data Fig. 2C, read-out: Gametocyte stage III-IV viability, percentage of control
  viability at 50 µM: 82.6%
[3]; Plasmodium falciparum, read-out: IC50, P. falciparum gametocyte stage III-IV inhibition
  IC50: 103 µM

— publication PMC11251039, “Harnessing cholesterol uptake of malaria parasites for therapeutic applications” (EMBO Molecular Medicine, 2024)
